Common to all, as to assay: NCI anticancer screen, dose series, 48 h
The test system of test [1] is U251 CNS.
For test [2], the system named is HCT-116 colon.
Test [3] concerns CCRF-CEM leukemia.
Test [4] deals with NCI/ADR-RES ovarian.
Test [5] relates to HS 578T breast.
Test [6] concerns SF-539 CNS.
Test [7] concerns SF-268 CNS.
In test [8] the test system is UO-31 renal.
Test [9] has as its system LOX IMVI melanoma.
Test [10] relates to HOP-92 NSCLC.

Several values for one entry are separate records, joined by “and”; a condition that tells them apart may be missing. Identical values can stand only once.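 In this assay, cells in 96-well plates receive the compound at five concentrations for 48 hours. Endpoints are linearly interpolated between the surrounding concentrations. Abbreviation: GI50, concentration required for 50% inhibition of growth. TGI denotes the concentration required for complete inhibition of growth.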

As for `CC1(C)C2CC(=O)C1(C)C(OCc1ccccc1)C2Br` (stereo not drawn), the GI50 in test [1] is 22.4 µM and 51.7 µM; in test [5] it was 13.4 µM; in test [6] it was 25.9 µM and > 100 µM; in test [8] it was 29.5 µM and 62 µM. Also, the TGI in test [1] is 44.6 µM and > 100 µM; in test [2], 39.8 µM and > 100 µM; in [3], 49.1 µM and 56.1 µM; in test [4] it was 42.1 µM and > 100 µM; in test [5], 68.2 µM and 58.8 µM; in [6] it was 68.4 µM and > 100 µM. Also, the TGI in test [7] was over 100 µM; in [8], 75.1 µM and > 100 µM.

On to `Nc1ncc(CN2CCCC2)c(-c2ccccc2O)n1`, for which the TGI in test [1], in test [2], in [9], in test [6], in [7] and in [8] was over 750 µM each time. The same compound displayed a TGI in test [10] of over 750 µM. In test [3], the GI50 is over 750 µM.

Regarding `CO[C@H]1C[C@H](O[C@H]2CC[C@@]3(C)[C@H](CC[C@@H]4[C@@H]3CC[C@]3(C)[C@@H](C5=CC(=O)OC5)CC[C@]43O)C2)O[C@H](C)[C@H]1O`, the TGI in test [1] was 0.0197 µM; in test [2], 0.0161 µM; in [9], 0.0159 µM; in test [3] it was over 100 µM; in test [4] it was 0.0472 µM; in test [6], 0.0138 µM. In addition, the TGI worked out at 0.0188 µM in test [7], 0.0217 µM in test [8] and 0.0882 µM in test [10].

On to `O=C(O)CN(CCN(CC(=O)O)CC(=O)O)CC(=O)O.[Cu+2].[Na+]`, for which the GI50 in [1], in [2], in test [9], in test [3], in [4] and in test [5] was over 100 µM throughout. In addition, the GI50 in test [6], in test [7] and in test [8] was over 100 µM in each case. In addition, the TGI in test [1], in test [2], in test [9], in [3], in test [4] and in test [5] was over 100 µM in each case. The TGI in [6], in [7] and in [8] was over 100 µM throughout.

As for `O=C1c2c(c3c4ccccc4n(CC4CO4)c3c3[nH]c4ccccc4c23)C(=O)N1Cc1ccccc1` (stereo not drawn), the TGI in test [1], in test [2], in test [9], in [3], in [6] and in test [7] was over 100 µM throughout. Further, the TGI in test [8] and in test [10] was over 100 µM throughout.

As for `CCCCCCNC(=O)CCN(C(=O)O)S(=O)(=O)c1ccc(NC(=O)c2ccccc2)cc1`, the TGI in test [1] was 42.3 µM; in [2], over 59.5 µM; in [9], over 62.2 µM; in test [3] it was 52.3 µM; in test [6] it was 38.4 µM; in [7] it was over 100 µM. In addition, the TGI in [8] and in [10] was over 100 µM throughout.

In the case of `COc1cccc(NC(=O)/C(CS(=O)(=O)CCC(C(C)=O)C(C)=O)=N\NC(C)(C)C)c1`, the TGI in test [1], in [2], in test [9], in [3], in [6] and in [7] was over 100 µM each time. For the same compound, the TGI in test [8] and in [10] was over 100 µM each time.

Regarding `COc1ccc(N2C(=O)[C@@H]3[C@@H]4CC(C)CC[C@@H]4c4c([nH]c5ccccc45)[C@@H]3C2=O)cc1` (stereo partly drawn), the TGI is 28.8 µM in test [1]; 20 µM in [2]; over 87.6 µM in test [9]; over 100 µM in [3]; 25.9 µM in test [6]; 37.9 µM in test [7]. Further, the results for the TGI in test [8] and in [10] were over 55.9 µM and 23 µM, respectively.

In the case of `COc1cc(O)c(C(=O)C2Cc3ccccc32)c(OC)c1` (stereo not drawn), the TGI in test [1], in test [2], in test [9], in test [3], in [6] and in [7] was over 100 µM each time. Besides, the TGI in test [8] and in test [10] was over 100 µM in each case.

On to `C=C1C(C)C2C(Cc3ccccc3)NC(=O)C23C(OC(C)=O)C=CC(C)(O)C(=O)C(C)C/C=C/C3C1O` (stereo not drawn), for which the TGI in [1] is 5.47 µM and 53.2 µM; in [2], over 500 µM; in test [3], 78.8 µM and > 500 µM; in [4], over 500 µM; in [5], 2.07 µM and 1.18 µM; in [6], 2.77 µM and 1.22 µM. Also, the TGI in test [8] was 1.62 µM and 14.3 µM; in test [10], 2.45 µM and 1.21 µM. The GI50 in [2] was 1.04 µM; in test [3] it was 15.4 µM; in test [4], over 500 µM; in [5], 0.0185 µM and 0.0551 µM; in test [6], 0.208 µM; in test [7] it was 0.698 µM. Besides, the GI50 in test [10] is 0.171 µM.

Take `CSCSCC(CO)NC(=O)/C=C/c1c(C)[nH]c(=O)[nH]c1=O` (stereo not drawn): the TGI in test [1], in test [2], in test [9], in test [3], in [6] and in test [7] was over 100 µM throughout. In addition, the TGI in test [8] and in test [10] was over 100 µM in each case.

In the case of `O=C(CC(C(=O)c1ccsc1)c1cccs1)c1cccs1` (stereo not drawn), the TGI in test [1], in test [2], in test [9], in test [3], in [6] and in test [7] was over 100 µM throughout. In addition, the values for the TGI in test [8] and in test [10] were 92.7 µM and over 100 µM, respectively.

For the compound `COc1ccccc1NC(=O)c1sc2ncn(CCOc3ccccc3)c(=O)c2c1C`, the GI50 in test [1] is 3.5 µM; in test [2], 1.99 µM; in [9], 1.52 µM; in [4], 1.76 µM; in test [5], 1.37 µM; in [6], 2.77 µM. For the same compound, the GI50 is 3.2 µM in [7], 12.5 µM in test [8] and over 50 µM in [10]. Also, the TGI in test [1] was over 50 µM; in test [2] it was over 50 µM; in test [9], over 50 µM; in test [4] it was over 50 µM; in [5] it was 4.1 µM; in test [6], 12.2 µM. Further, the TGI in test [7], in test [8] and in test [10] was over 50 µM each time.

Consider `CCN(CC)C(=O)Cc1[nH][nH]c(=O)c1C(=O)N(CC)CC`, for which the TGI in test [1], in test [2], in [9], in test [3], in [6] and in [7] was over 100 µM each time. In addition, the TGI in [8] and in test [10] was over 100 µM in each case.

For the compound `CC(C)(C)n1cc(-c2ccnc(NCCCNS(=O)(=O)c3cccc4ccccc34)c2)c(-c2cccc(O)c2)n1`, the GI50 in test [1] was 1.73 µM; in [2], 1.4 µM; in test [9], 1.73 µM; in [3], 2.44 µM; in [5] it was 1.89 µM; in test [6], 1.83 µM. The GI50 in [7] was 2.77 µM; in test [8] it was 2.26 µM; in test [10], 1.71 µM. The TGI is 3.87 µM in test [1]; 2.89 µM in [2]; 3.28 µM in [9]; over 100 µM in [3]; 4.8 µM in test [5]; 3.52 µM in [6]. The TGI in [7] amounted to 8.02 µM; in test [8], 7.97 µM; in test [10], 5.07 µM.

Regarding `C=C(C)[C@@H]1CC[C@]2(C(=O)O)CC[C@]3(C)[C@H](CC[C@@H]4[C@@]5(C)CCC(N)C(C)(C)[C@@H]5CC[C@]43C)[C@@H]12` (stereo partly drawn), the GI50 is 1.95 µM in test [1], 2.11 µM in [3], 2.48 µM in [5] and 1.59 µM in test [6]. Further, the TGI in [1] came out at 3.6 µM; in [3], 5.53 µM; in test [5], 5.38 µM; in [6] it was 3.02 µM.

`CC1=C(\C=C/C(C)=C/C=C/C(C)=C/C=C/C=C(C)\C=C\C=C(C)/C=C/C2=C(C)CCCC2(C)C)C(C)(C)CCC1`: the TGI in test [1] was over 100 µM; in [2] it was 71.9 µM; in [9], over 100 µM; in test [3], over 100 µM; in [4] it was over 100 µM; in test [5] it was over 100 µM. The TGI in [7] and in test [8] was over 100 µM in each case.

Turning to `CC1OC(O[C@@H]2C=C3CC[C@@H]4[C@H](CC[C@]5(C)[C@@H](c6ccc(=O)oc6)CC[C@]45O)[C@@]3(C)CC2)C(O)C(O)C1O` (stereo partly drawn), the TGI in test [2] was 0.0017 µM; in test [4], 0.003 µM and 0.000304 µM; in test [5], 0.003 µM; in [6] it was 0.000193 µM; in test [7] it was 0.00353 µM; in test [8], 0.00205 µM. Moreover, in [10], the TGI is 0.003 µM and 0.000676 µM. Further, in [5], the GI50 was 0.00326 µM.

With `NN=C1/C(=C\c2ccccc2)CCC/C1=C/c1ccccc1`, the TGI in test [1] was over 100 µM; in test [2], over 100 µM; in [9], 54.3 µM; in test [3], 45 µM; in [6], over 100 µM; in [7], over 100 µM. For the same compound, the TGI in test [8] was 94.2 µM; in [10], 76.7 µM.

As to `O=C1N(c2ccc(Cl)cc2)C(=O)C2(SC=NN2Cc2ccccc2)N1c1ccc(Cl)cc1` (stereo not drawn), the TGI in test [1], in test [2], in test [9], in test [3], in [6] and in test [7] was over 100 µM each time. Besides, the TGI in test [8] and in [10] was over 100 µM each time.

Turning to `COC(=O)CC(=O)OC1C[C@@H]2CCC3C(C)(C)CCC[C@]3(C)C23CC[C@@]1(C)C3` (stereo partly drawn), the TGI was 31.2 µM in test [1]; 31.4 µM in test [2]; 32.3 µM in test [9]; over 100 µM in test [3]; 39.1 µM in [6]; 35.9 µM in [7]. Further, the TGI in [8] amounted to 39.8 µM; in [10], 31.9 µM.

`Cc1cc2c3ccccc3n3c2c2c1OC1(C)CCC(C2C1)C3(C)C` (stereo not drawn): the TGI in test [1], in test [2], in test [9], in test [3], in test [6] and in test [7] was over 25 µM throughout. The TGI in [8] and in test [10] was over 25 µM in each case.

In the case of `CN1C/C(=C\c2ccccc2)C2=NN(C(N)=S)[C@H](c3ccccc3)[C@@H]2C1`, the TGI in test [1], in test [2], in test [9], in test [3], in test [6] and in test [7] was over 100 µM throughout. For the same compound, the TGI in test [8] and in test [10] was over 100 µM in each case.

For `COc1cc(OC)c(/C=C/S(=O)(=O)Cc2ccc(OC)c(N)n2)c(OC)c1`, the GI50 in test [1] was under 0.01 µM; in test [2] it was under 0.01 µM; in test [9], under 0.01 µM; in test [3] it was under 0.0157 µM; in test [5], under 0.01 µM; in test [6], under 0.01 µM. The GI50 was under 0.01 µM in test [7], under 0.0126 µM in test [8] and 0.093 µM in test [10]. The TGI in test [1] is over 100 µM; in test [2] it was over 100 µM; in [9], over 100 µM; in test [3], over 100 µM; in test [5], over 100 µM; in test [6], under 0.01 µM. In addition, the TGI in test [7], in [8] and in [10] was over 100 µM throughout.

Take `COc1cc2c(c3oc4c(O)cccc4c(=O)c13)CC(C(C)(O)CCl)O2` (stereo not drawn): the TGI is 12.5 µM in [1]; 2.53 µM in test [2]; 0.026 µM in [9]; 11.9 µM in test [4]; 6.89 µM in test [5]; 2.2 µM in test [6]. Also, the TGI in test [7] was 3.33 µM; in test [8], 4.9 µM; in [10], 10.5 µM.
